Literature values, collected in patent publication US6420552B1, “Syntheses of 4-alkyl chromogenic glycosides and 7-alkyl chromogenic glycosides of N-acetylneuraminic acids” (priority 1999, dated 2002).

Assays:
[1] = test system: neuraminidase activity of influenza types A and B; conditions: substrate activity, result in words
[2] = test system: neuraminidase activity of parainfluenza types 1 and 2; conditions: substrate activity, result in words
[3] = test system: respiratory syncytial adenovirus; conditions: substrate activity, result in words
[4] = molecular target: neuraminidase from Vibrio cholerae (Vibrio cholerae serotype O1, UniProt P0C6E9); conditions: 4-methylumbelliferyl α ketosides
Chain of neuraminidase from Vibrio cholerae (P0C6E9 25-781): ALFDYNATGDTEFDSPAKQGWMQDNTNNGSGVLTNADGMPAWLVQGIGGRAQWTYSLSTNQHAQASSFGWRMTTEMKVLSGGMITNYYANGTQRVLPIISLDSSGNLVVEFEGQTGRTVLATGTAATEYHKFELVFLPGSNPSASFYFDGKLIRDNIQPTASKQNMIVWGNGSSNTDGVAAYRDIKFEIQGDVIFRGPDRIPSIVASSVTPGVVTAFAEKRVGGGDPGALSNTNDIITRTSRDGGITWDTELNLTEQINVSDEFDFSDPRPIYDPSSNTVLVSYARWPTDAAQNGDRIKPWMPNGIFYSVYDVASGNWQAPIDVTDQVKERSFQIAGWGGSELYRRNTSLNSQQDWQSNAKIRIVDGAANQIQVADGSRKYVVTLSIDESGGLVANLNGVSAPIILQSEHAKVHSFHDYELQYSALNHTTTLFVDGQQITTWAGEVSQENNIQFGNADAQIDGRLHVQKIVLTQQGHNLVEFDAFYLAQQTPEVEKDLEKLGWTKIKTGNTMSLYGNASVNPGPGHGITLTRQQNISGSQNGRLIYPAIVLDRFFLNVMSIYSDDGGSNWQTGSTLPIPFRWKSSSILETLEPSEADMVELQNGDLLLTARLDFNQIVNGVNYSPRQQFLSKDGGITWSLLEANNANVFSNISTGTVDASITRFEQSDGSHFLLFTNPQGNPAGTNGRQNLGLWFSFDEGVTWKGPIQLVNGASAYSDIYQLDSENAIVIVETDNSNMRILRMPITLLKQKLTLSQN

Compound | hydrolysis / colour development by neuraminidase activity of influenza types A and B [1] | hydrolysis / colour development by neuraminidase activity of parainfluenza types 1 and 2 [2] | hydrolysis by respiratory syncytial adenovirus [3] | glycosidic hydrolysis by neuraminidase from Vibrio cholerae [4]
5-bromo-3-indolyl 4-O-methyl Neu5Ac ketoside | acted upon | acted upon | not at all | 
CC(=O)N[C@@H]1CCC(O)(C(=O)O)O[C@H]1C[C@H](O)CO (stereo partly shown) [4,7-dideoxy Neu5Ac] |  |  |  | significantly slowed
COC1CC(Oc2c[nH]c3ccc(Br)cc23)(C(=O)O)OC(C(OC)C(O)CO)C1NC(C)=O (stereo not shown) [5-bromo-3-indolyl 4,7-di-O-methyl Neu5Ac ketoside] | selectively hydrolyzed |  |  | 
CC(=O)N[C@H]1[C@H]([C@@H](O)[C@@H](O)CO)OC(O)(C(=O)O)C[C@@H]1O (stereo partly drawn) [7,8-(bis)epi Neu5Ac] |  |  |  | significantly slowed
CC(=O)N[C@H]1[C@H](C[C@H](O)CO)OC(O)(C(=O)O)C[C@@H]1O (stereo partly shown) [7-deoxy Neu5Ac] |  |  |  | significantly slowed
